Source: paper PMC10331488, “Targeting apolipoprotein E and N-terminal amyloid β-protein precursor interaction improves cognition and reduces amyloid pathology in Alzheimer’s mice” (The Journal of Biological Chemistry, 2023)
Peptide text beside a SMILES is read from it.

Conditions: mouse, in vivo, ip
Description: Finally, to examine whether 6KApoEp did enter the brain to interact with APP, we aimed to identify 6KApoEp in vehicle- and 6KApoEp-treated APP/PS1/E2/E3/E4 mouse brains by Western blotting with antibody against LDLR binding domain (residues 133–152) of human apoE that is the analogous epitope as 6KApoEp except for 6K. […] Moreover, we examined the stability of 6KApoEp in the mouse plasma at different incubation times (i.e., 0, 3, 6, 12, and 24 h) at 37 °C by Western blotting using the same antibody.
The right five lanes denote a series of 6KApoEp calibration peptides (i.e., 20, 40, 80, 160, and 320 ng). Brain homogenates were obtained from APP/PS1/E2 mice that received vehicle (APP/PS1/E2-V) or 6KApoEp (APP/PS1/E2-6KApoEp), APP/PS1/E3 mice that received vehicle (APP/PS1/E3-V) or 6KApoEp (APP/PS1/E3-6KApoEp), and APP/PS1/E4 mice that received vehicle (APP/PS1/E4-V) or 6KApoEp (APP/PS1/E4-6KApoEp) for 3 months starting at 12 months of age. B, Western blotting data for the calibration graph were obtained from a series of 6KApoEp calibration peptides (i.e., 20, 40, 80, 160, and 320 ng). […] Western blotting data for (B) included each mouse (n = 4 per group with two of each sex), and quantitative data were averaged. […] D, the experiment was performed four times, and quantitative data were averaged (Table S23). […]

Whole-brain 6KApoEp level relative to the daily dose (7.5 μg): 3.4-6.7 times the daily dose
SMILES: CC(C)C[C@H](NC(=O)[C@H](CCCNC(=N)N)NC(=O)[C@@H](NC(=O)[C@H](CCCNC(=N)N)NC(=O)[C@H](CC(C)C)NC(=O)[C@H](CCCCN)NC(=O)[C@H](CCCCN)NC(=O)[C@H](CCCCN)NC(=O)[C@H](CCCCN)NC(=O)[C@H](CCCCN)NC(=O)[C@@H](N)CCCCN)C(C)C)C(=O)N[C@@H](C)C(=O)N[C@@H](CO)C(=O)N[C@@H](Cc1c[nH]cn1)C(=O)N[C@@H](CC(C)C)C(=O)N[C@@H](CCCNC(=N)N)C(=O)N[C@@H](CCCCN)C(=O)N[C@@H](CC(C)C)C(=O)N[C@@H](CCCNC(=N)N)C(=O)N[C@@H](CCCCN)C(=O)N[C@@H](CCCNC(=N)N)C(=O)N[C@@H](CC(C)C)C(=O)N[C@@H](CC(C)C)C(=O)N[C@@H](CCCNC(=N)N)C(=O)N[C@@H](CC(=O)O)C(=O)N[C@@H](C)C(=O)O [6KApoEp] (H-KKKKKKLRVRLASHLRKLRKRLLRDA-OH)
